What was measured:
rat mGlu2 receptor = target: T1, rat mGlu2 receptor (Rattus norvegicus, UniProt P31421); test: [3H]-LY354740 binding on mGlu2 transfected CHO cell membranes
T1 construct: expressed in transfected cells; host or cells: CHO cells, stably transfected with pcD1mGR2 (pcDNA I-amp), G-418 selected; membranes used
T1 sequence (P31421 19-872): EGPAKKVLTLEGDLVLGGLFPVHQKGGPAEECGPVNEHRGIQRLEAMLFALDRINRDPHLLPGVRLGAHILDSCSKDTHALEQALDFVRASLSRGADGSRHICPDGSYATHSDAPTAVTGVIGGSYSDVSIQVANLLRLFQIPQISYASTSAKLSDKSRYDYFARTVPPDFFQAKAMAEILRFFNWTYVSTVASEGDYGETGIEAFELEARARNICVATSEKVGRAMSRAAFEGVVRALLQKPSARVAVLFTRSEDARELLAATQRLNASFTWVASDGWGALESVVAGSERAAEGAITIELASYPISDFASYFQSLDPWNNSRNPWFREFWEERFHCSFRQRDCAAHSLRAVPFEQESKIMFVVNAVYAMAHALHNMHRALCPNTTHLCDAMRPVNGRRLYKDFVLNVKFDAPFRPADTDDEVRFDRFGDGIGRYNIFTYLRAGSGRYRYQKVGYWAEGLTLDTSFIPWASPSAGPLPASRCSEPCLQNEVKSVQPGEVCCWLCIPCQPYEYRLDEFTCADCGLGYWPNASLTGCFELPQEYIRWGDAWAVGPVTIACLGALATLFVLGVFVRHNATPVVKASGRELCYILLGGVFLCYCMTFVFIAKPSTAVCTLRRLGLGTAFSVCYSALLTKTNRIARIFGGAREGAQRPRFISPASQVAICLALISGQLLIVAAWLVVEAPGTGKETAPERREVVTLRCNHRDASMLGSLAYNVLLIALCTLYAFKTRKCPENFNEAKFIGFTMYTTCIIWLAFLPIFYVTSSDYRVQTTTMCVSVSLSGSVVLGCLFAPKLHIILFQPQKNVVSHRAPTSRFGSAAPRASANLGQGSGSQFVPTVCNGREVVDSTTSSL

## N#Cc1cccc(C2=Nc3cc(OCC4COC(=O)O4)c(C#Cc4ccccc4)cc3NC(=O)C2)c1 (racemic) [Example 28, [RS]-3-[4-Oxo-8-(2-oxo-[1,3]dioxolan-4-ylmethoxy)-7-phenylethynyl-4,5-dihydro-3H-benzo[b][1,4]diazepin-2-yl]-benzonitrile]
Rat mGlu2 receptor
  Ki: 35 nM
other
  melting point: 222 °C (dec.)

## N#Cc1cccc(C2=Nc3cc(Cl)c(C#Cc4ccccc4)cc3NC(=O)C2)c1 [Example 3, 3-(8-Chloro-4-oxo-7-phenylethynyl-4,5-dihydro-3H-benzo[b][1,4]diazepin-2-yl)-benzonitrile]
Rat mGlu2 receptor
  Ki: 28 nM

## N#Cc1cccc(C2=Nc3cc(Cl)c(-c4ccccc4)cc3NC(=O)C2)c1 [Example 7, 3-(8-Chloro-4-oxo-7-phenyl-4,5-dihydro-3H-benzo[b][1,4]diazepin-2-yl)-benzonitrile]
Rat mGlu2 receptor
  Ki: 120 nM
other
  melting point: 242 to 244 °C (dec.)

## COC(=O)CSc1cc2c(cc1C#Cc1ccccc1)NC(=O)CC(c1cccc(C#N)c1)=N2 [Example 12, [4-(3-Cyano-phenyl)-2-oxo-8-phenylethynyl-2,3-dihydro-1H-benzo[b][1,4]diazepin-7-ylsulfanyl]-acetic acid methyl ester]
Rat mGlu2 receptor
  Ki: 51 nM
other
  melting point: 201 °C (dec.)

## N#Cc1cccc(C2=Nc3cc(CC(N)=O)c(C#Cc4ccccc4)cc3NC(=O)C2)c1 [Example 17, 2-[4-(3-Cyano-phenyl)-2-oxo-8-phenylethynyl-2,3-dihydro-1H-benzo[b][1,4]diazepin-7-yl]-acetamide]
Rat mGlu2 receptor
  Ki: 37 nM
other
  melting point: 250 °C (dec.)

## COc1cc2c(cc1C#Cc1ccccc1)NC(=O)CC(c1cccc(C#N)c1)=N2 [Example 20, 3-(8-Methoxy-4-oxo-7-phenylethynyl-4,5-dihydro-3H-benzo[b][1,4]diazepin-2-yl)-benzonitrile]
Rat mGlu2 receptor
  Ki: 46 nM
other
  melting point: > 250 °C

## N#CCc1cc2c(cc1C#Cc1ccccc1)NC(=O)CC(c1cccc(C#N)c1)=N2 [Example 23, 3-(8-Cyanomethyl-4-oxo-7-phenylethynyl-4,5-dihydro-3H-benzo[b][1,4]diazepin-2-yl)-benzonitrile]
Rat mGlu2 receptor
  Ki: 16 nM
other
  melting point: 262 °C (dec.)

## COCCOc1cc2c(cc1C#Cc1ccccc1)NC(=O)CC(c1cccc(I)c1)=N2 [Example 25]
Rat mGlu2 receptor
  Ki: 21 nM
other
  melting point: 192 °C (dec.)

## COCCOc1cc2c(cc1C#Cc1ccccc1)NC(=O)CC(c1cccc(-n3ccnc3)c1)=N2 [Example 27, 4-(3-Imidazol-1-yl-phenyl)-7-(2-methoxy-ethoxy)-8-phenylethynyl-1,3-dihydro-benzo[b][1,4]diazepin-2-one]
Rat mGlu2 receptor
  Ki: 12 nM
other
  melting point: 187 to 189 °C

## O=C1CC(c2cccc(-n3ccnc3)c2)=Nc2cc(CO)c(C#Cc3ccccc3)cc2N1 [Example 32, 7-Hydroxymethyl-4-(3-imidazol-1-yl-phenyl)-8-phenylethynyl-1,3-dihydro-benzo[b][1,4]diazepin-2-one]
Rat mGlu2 receptor
  Ki: 18 nM
other
  melting point: 227 °C

## O=C1CC(c2cccc(-n3ccnc3)c2)=Nc2cc(CO)c(C#Cc3ccc(F)cc3)cc2N1 [Example 37, 8-(4-Fluoro-phenylethynyl)-7-hydroxymethyl-4-(3-imidazol-1-yl-phenyl)-1,3-dihydro-benzo[b][1,4]diazepin-2-one]
Rat mGlu2 receptor
  Ki: 9 nM
other
  melting point: 234 °C (dec.)

## O=C1CC(c2cccc(-n3ccnc3)c2)=Nc2cc(OCCO)c(C#Cc3ccccc3)cc2N1 [Example 42, 7-(2-Hydroxy-ethoxy)-4-(3-imidazol-1-yl-phenyl)-8-phenylethynyl-1,3-dihydro-benzo[b][1,4]diazepin-2-one]
Rat mGlu2 receptor
  Ki: 32 nM
other
  melting point: 224 to 227 °C

## O=C1CC(c2cccc(-n3ccnc3)c2)=Nc2cc(N3CCC(OCCO)CC3)c(-c3ccc(F)cc3)cc2N1 [Example 45, 8-(4-Fluoro-phenyl)-7-[4-(2-hydroxy-ethoxy)-piperidin-1-yl]-4-(3-imidazol-1-yl-phenyl)-1,3-dihydro-benzo[b][1,4]diazepin-2-one]
Rat mGlu2 receptor
  Ki: 100 nM
other
  melting point: 225 to 227 °C
